Results published in patent US7605175B2, “Inhibitors of cyclin-dependent kinases, compositions and uses related thereto” (GPC Biotech AG, priority 2001, dated 2009).
Like-named read-outs stand apart in the source and are kept apart here.

Key:
HCT-116 cells = assay: Cell cycle analysis with propidium iodide (PI FACS); type: cell-based, human; details: HCT-116, 24, 48 and 72 hours
Procedure: The percentage of cells in the G1, S and G2/M phases of the cell cycle was determined by staining DNA with propidium iodide and quantifying the number of cells with a 2N or 4N DNA complement by flow cytometry. Alterations in the distribution of cells across the cell cycle in response to exposure to the Cdk inhibitors was evaluated in this marmer.
3 sets of HCT-116 cells (100,000 cells/set) were cultured in the presence of a test compound in T-25 flasks according to Table 1 below. Analysis was performed at 24, 48 and 72 hours. Adherent cells were collected by trypsinization, combined with floating cells in Falcon 12×75 flow cytometric tubes, and harvested by centrifugation. The media was decanted from the cell pellet, 100 μl of PI stain was added and the cells were incubated at 37° C. for 20-25 minutes. The cell count was preferably no greater than 2×10^6-4×10^6/ml. An equal volume (100 μl) of PI salt was then added to the cells, which were then incubated at 4° C. for 1-2 hours. The stained cells were analyzed on a Becton Dickinson FACScan flow cytometer. Samples were protected from light.

[1] = tested on: NCI panel of 60 cell lines; assay: NCI panel of human tumor cell lines (SRB), Mean-Graph Mid-point; type: cell-based
Source text: The evaluation of compounds at the National Cancer Institute in their panel of 60 cell lines provides a wealth of information regarding efficacy in a wide range of tumor types and genetic backgrounds. Included within this panel are cell lines derived from leukemia, melanoma and cancers of the lung, colon, brain, ovary, breast, prostate and kidney. Use of this panel provides a measure of the efficacy of compounds in cells with alterations in many genes that are associated with neoplastic transformation including p53 and Her2/Neu as well as those involved in metabolism and those which confer multi-drug resistance. The data generated in these cell lines with the protocol described below can be used to evaluate the activity of compounds.
Cells were grown in RPMI-1640 10% FCS and plated in 96 well micro-titer plates at densities ranging from 5,000 to 40,000 cells/well. The plates were incubated for 24 hours at 37° C., 5% CO2 for 24 hours. Media containing twice the desired final concentration of the compound (5 doses spanning 4 logs) was prepared and 100 μl was added to each well containing 100 μl media plus cells to yield the desired final concentration. The plates were then incubated for an additional 48 hours.
The effect of the compound on cellular viability was determined with the Sulforhodamine B (SRB) assay, which measures total protein. Cells were fixed with cold TCA to a final concentration of 10% and incubated at 4° C. for 60 minutes. The supernatant was discarded and the plates were washed five times with water and air-dried. SRB solution at […] in 1% acetic acid was added to each well and the plates were incubated for 10 minutes at room temperature. The plates were washed five times with 1% acetic acid and air-dried. The bound stain was solubilized with 10 mM trizma base and the absorbance was read on a plate reader at […].

arrested HCT-116 cells = assay: Arrested cell assay, arrested HCT-116 tumor cells; type: cell-based; details: Homo sapiens
Procedure: (§1) Cyclin-dependent kinase (Cdk) activity is required to promote the progression of cells through distinct phases of the cell division cycle. The proliferation of normal, non-transformed, cells in culture requires the presence of growth factors, the removal of which, through serum deprivation, leads to a loss of Cdk activity and consequent exit from the cell cycle as cells enter the quiescent phase, G0.
HCT-116 cells were plated in triplicate for each compound concentration to be tested in RPMI 1640 media containing 10% fetal calf serum at a density of either 200 or 2,000 cells per well in 24 well dishes, and incubated overnight at 37° C., 5% CO2. The media from the plate containing 2,000 cells per well was removed, cells were washed once with serum free media and 1 ml of serum free media was placed on cells. The plates containing cells both in the presence and absence of serum were incubated for 6 additional days.
(§2) The cells are incubated in the presence of the compounds for 72 hours (3 days) at 37° C. […] Cycling and arrested HCT-116 cells as well as cycling IMR90 cells were exposed to a panel of 6 doses ranging from 5 to 250 nM. For arrested normal cells, the range of doses was increased to 50 nM to 25 μM, to compensate for the expected decrease in activity.
(§3) The effect of 72 hours of compound exposure on cellular viability was assessed in the Calcein AM assay. Calcein AM is a fluorescent substrate of intracellular esterases that are only active in viable cells. Cleavage of the substrate thus provides a measure of viability, which is proportional to cell number.
(§4) A Calcein AM stock solution was prepared by dissolving a 50 μg aliquot (Molecular Probes catalogue # C3100) in 50 μl DMSO. The tube was incubated at room temperature for approximately 10 minutes to ensure that the Calcein had dissolved completely. The calcein was diluted into 10 ml PBS to prepare the final solution, which was protected from light.
(§5) The media was aspirated off the cells, which were then washed twice with 1 ml PBS to remove the PBS completely from cells by aspiration. 0.5 ml of the Calcein/PBS solution was transferred by pipette into each well. The plates were incubated at 37° C. for 75 minutes (protected from light) and read on a fluorescent plate reader (excitation 485/20 and emission 530/25).

arrested IMR90 cells = assay: Arrested cell assay, arrested IMR90 normal cells; type: cell-based; details: Homo sapiens, IMR-90
Procedure: as §1
IMR90 cells were plated in triplicate for each compound concentration to be tested in MEM-A media containing 10% fetal calf serum at a density of either 2,000 or 20,000 cells per well in 24-well dishes and incubated overnight at 37° C., 5% CO2. The media was removed from the 20,000 cell-per-well dish, cells were washed once with serum-free media, and serum-free media was placed on cells. The plates containing cells both in the presence and absence of serum were incubated for 3 additional days.
as §2, §3, §4, §5

[2] = NCI assay, read-out: Mean-Graph Mid-point
[3] = read-out: IC50 for arrested HCT-116 cells
[4] = read-out: IC50 for arrested IMR90 cells

IC50 (arrested HCT-116 cells; serum-starved arrested cells, 72 hours, read-out: Arrested cell assay HCT IC50) [nM] | SMILES | Effect on cell cycle distribution (PI staining) (HCT-116 cells) | IC50 [1, 2] [nM] | IC50 (arrested HCT-116 cells; [3]) [nM] | IC50 (arrested IMR90 cells; [4]) [nM] | IC50 ([1]; read-out: NCI panel MG-MID (Mean-Graph Mid-point, average IC50 over the whole cell panel)) [nM] | IC50 (arrested IMR90 cells; serum-starved arrested cells, 72 hours, read-out: Arrested cell assay IMR90 IC50) [nM]
 | COCCN1CCN(Cc2ccc(-c3[nH]nc4c3C(=O)c3c(NC(=O)NN5CCOCC5)cccc3-4)cc2)CC1.Cl.Cl [Compound B16, N-[3-(4-{[4-(2-methoxyethyl)piperazinyl]methyl}phenyl)-4-oxoindeno[2,3-d]pyrazol-5-yl](morpholin-4-ylamino)carboxamide dihydrochloride] | Analogous results | < 50 | < 50 | > 10000 |  | 
 | CC(C)N1CCN(C(=O)COc2ccc(-c3[nH]nc4c3C(=O)c3c(NC(=O)NN5CCOCC5)cccc3-4)cc2)CC1.Cl [Compound A37] | cells are terminally arrested in G1 and G2, with evidence of apoptosis and endo-reduplication | < 50 | < 50 | > 10000 |  | 
< 10 | CC(C)c1nn(-c2c(Cl)cccc2Cl)c2nc(Cc3ccc(O)c(CN4CCN(C(C)C)CC4)c3)[nH]c(=O)c12 [Compound C] |  |  |  |  | < 100 | > 1000
